Data reported in article PMC11171933, “Rapid Determination of Kinetic Constants for Slow-Binding Inhibitors and Inactivators of Human Histone Deacetylase 8” (International Journal of Molecular Sciences, 2024).
Entries after “also recorded” stand apart in the source; their conditions may differ. Where two headings read alike, the source gives them in different places. Blank lines part the entries; values can stand above or below the compound they belong to.

Experiments:
[1] = target: T1, CYP3A4 (Homo sapiens, UniProt P08684); test: Inactivation kinetics of CYP3A4 (literature data and reanalysis)
T1 sequence (P08684 2-503): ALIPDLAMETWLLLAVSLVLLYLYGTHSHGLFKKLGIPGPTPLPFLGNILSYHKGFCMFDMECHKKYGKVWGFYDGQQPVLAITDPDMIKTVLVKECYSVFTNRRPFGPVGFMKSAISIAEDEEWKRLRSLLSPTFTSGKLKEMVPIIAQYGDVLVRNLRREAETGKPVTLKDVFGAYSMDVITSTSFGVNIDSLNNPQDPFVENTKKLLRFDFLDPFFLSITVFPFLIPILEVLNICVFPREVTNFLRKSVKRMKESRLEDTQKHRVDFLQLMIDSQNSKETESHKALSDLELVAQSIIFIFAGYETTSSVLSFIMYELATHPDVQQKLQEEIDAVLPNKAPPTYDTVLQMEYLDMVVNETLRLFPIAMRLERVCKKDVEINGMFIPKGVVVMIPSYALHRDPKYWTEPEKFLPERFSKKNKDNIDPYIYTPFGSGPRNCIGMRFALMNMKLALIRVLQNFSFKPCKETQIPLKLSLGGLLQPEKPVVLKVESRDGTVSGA
Experimental: (§1) Firstly, the remaining enzyme activities were extracted from the data sets for all inactivator concentrations and plotted against the respective preincubation times used. Secondly, the resulting decay curves for different inactivator concentrations were fitted to mono-exponential functions, thus yielding observed inactivation rates kobs for all inactivator concentrations.

[2] = target: T2, human HDAC8 (Homo sapiens, UniProt Q9BY41); test: Time-dependent fluorometric HDAC8 enzyme activity assay (dose-response curves after different pre-incubation times); details: for Binding / inhibition mechanism classification: from time-dependent dose-response curves and kobs vs [I] plot; for kinact: read-out: kinact (min^−1); for kinact/KI: read-out: kinact/KI (M^−1s^−1)
T2 sequence (Q9BY41 1-377): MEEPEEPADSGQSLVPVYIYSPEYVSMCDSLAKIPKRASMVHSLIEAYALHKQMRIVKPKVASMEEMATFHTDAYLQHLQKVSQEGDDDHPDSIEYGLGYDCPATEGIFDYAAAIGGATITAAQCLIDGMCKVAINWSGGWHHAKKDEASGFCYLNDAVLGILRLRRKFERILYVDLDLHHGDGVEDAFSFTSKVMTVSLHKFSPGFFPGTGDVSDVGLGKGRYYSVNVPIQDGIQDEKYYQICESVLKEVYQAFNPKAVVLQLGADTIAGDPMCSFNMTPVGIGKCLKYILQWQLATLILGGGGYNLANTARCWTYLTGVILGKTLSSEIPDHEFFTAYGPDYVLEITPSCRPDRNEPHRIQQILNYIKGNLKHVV
Experimental: HDAC8 activity was determined using a fluorometric assay, as previously described [44]. […] The enzyme reaction was initiated by adding 20 μM of the substrate Boc-Lys(TFA)-AMC (Bachem, Bubendorf, Switzerland). […] The measurements were carried out using a fluorescence microplate reader (PHERAstar FS, BMG LABTECH, Ortenberg, Germany) with fluorescence excitation at 360 nm and emission at 460 nm. IC50 values were calculated using GraphPad Prism 9 by generating dose–response curves and fitting them to a 4-parameter fit model [50]. The results represent the mean ± SD of three independent experiments.
The binding constant Ki for the 1-step binding mechanism in Equation (5) was calculated as follows:(5) Ki=koff/kon
A plot of kobs versus inhibitor or inactivator concentration ([I]) allows distinguishing between 1-step or 2-step behavior: a straight line indicates 1-step, and a saturation curve indicates a 2-step mechanism. Kinetic parameters were obtained from fitting kobs vs. [I] data to the following functions for the indicated mechanism:
Reversible 1-step binding (see Equation (1)):(8) kobs=kon[I]+koff where kon and koff are association and dissociation rate constants, respectively.
Reversible 2-step binding (see Equation (2)):(9) kobs=k−r+kr/1+IC50/[I] where kr and k−r are forward and reverse isomerization rate constants of the second step.
Irreversible 1-step inactivation (see Equation (3)):(10) kobs=kinact/KI[I] where kinact is the inactivation rate, KI is [I], and kinact is the half-maximum.
Irreversible 2-step inactivation (see Equation (4)):(11) kobs=kinact[I]/KI +[I]

[3] = target: T3, CYP2C8 (Homo sapiens, UniProt P10632); test: Inactivation kinetics of CYP2C8 (literature data and reanalysis)
T3 sequence (P10632 1-490): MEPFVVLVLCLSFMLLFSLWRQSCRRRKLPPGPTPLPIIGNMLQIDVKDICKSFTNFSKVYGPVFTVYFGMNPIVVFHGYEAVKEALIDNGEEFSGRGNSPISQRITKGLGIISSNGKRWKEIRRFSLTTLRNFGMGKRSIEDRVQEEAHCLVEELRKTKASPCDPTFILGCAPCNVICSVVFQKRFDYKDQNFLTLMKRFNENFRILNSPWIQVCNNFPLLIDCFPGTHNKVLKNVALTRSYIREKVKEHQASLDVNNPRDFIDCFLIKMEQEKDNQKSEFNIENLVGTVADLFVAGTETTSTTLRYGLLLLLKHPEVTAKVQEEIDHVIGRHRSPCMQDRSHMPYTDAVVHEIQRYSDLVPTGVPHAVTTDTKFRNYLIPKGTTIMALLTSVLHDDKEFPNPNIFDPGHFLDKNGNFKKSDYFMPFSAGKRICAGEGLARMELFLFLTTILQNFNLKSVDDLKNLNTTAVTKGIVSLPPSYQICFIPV
Experimental: as §1

[4] = target: T1, CYP3A4; details: CYP3A4 inactivation ref 38, cited from earlier work
[5] = set-up: method as in PMID 5970483; details: pH 8 ref 48; cited from earlier work
[6] = set-up: method as in PMID 5970483; details: pH of 7.0 ref 48; cited from earlier work
[7] = target: T3, CYP2C8; details: CYP2C8 inactivation ref 36, cited from earlier work
[8] = tested on: HDAC8; details: read-out: IC50 (µM) (Lit.), cited from earlier work
[9] = target: HDAC8; set-up: method as in PMID 24882269; details: binding affinity to HDAC8 ref 41; cited from earlier work
[10] = tested on: HIV protease; set-up: method as in PMID 17928344; details: HIV protease ref 18; cited from earlier work

Ki ([1]; human): 12 ± 5 µM
kinact ([1]; human): 0.0065 s⁻¹
SMILES: CC(C)=CCC/C(C)=C/COc1c2ccoc2cc2oc(=O)ccc12 [Bergamottin]

IC50 [2]: 80 ± 30 nM
kinact [2]: > 2 min⁻¹
SMILES: O=c1c2ccccc2[se]n1-c1ccccc1 [Ebselen, reference compound]
Binding / inhibition mechanism classification [2]: rapidly inactivated HDAC8; also recorded: fast covalent inactivators

Ki ([1]; human): 5.4 ± 2.5 µM
SMILES: C#C[C@]1(O)CC[C@H]2[C@@H]3CCc4cc(O)ccc4[C@H]3CC[C@@]21C [Ethynyl-estradiol, reference compound]

SMILES: NNC(=O)c1ccncc1 [Isoniazid]
Ki ([3]; human): 280 ± 40 µM
kinact ([3]; human): 0.0006 s⁻¹

SMILES: CC/C(=C(\c1ccccc1)c1ccc(OCCNC)cc1)c1ccccc1 [N-desmethy-ltamoxifen]
kinact (min^−1), Literature [4]: 0.08 min⁻¹
Ki ([4]; read-out: KI (µM), Literature): 2.6 µM
kinact (min^−1), Reanalysis ([1]; CYP3A4, reanalysis of literature data (refs 37-39) with two-step fit of kobs vs [I]): 0.083 ± 0.007 min⁻¹
Ki ([1]; read-out: KI (µM), Reanalysis, CYP3A4, reanalysis of literature data (refs 37-39) with two-step fit of kobs vs [I]): 2.5 ± 1 µM

SMILES: CCN1C(=O)C=CC1=O [NEM, N-ethylmaleimide, reference compound]
second-order rate constant for N-ethylmaleimide reaction with cysteine [5]: 15,300 M^−1s^−1
rate constant, times lower than that of cysteine [6]: more than 100 times
IC50 [2]: 700 to 42000 nM
Binding / inhibition mechanism classification [2]: unspecific one-step affinity labeling; also recorded: slow inactivation behavior
kinact/KI [2]: 133 ± 3 M⁻¹ s⁻¹

SMILES: CNCCC=C1c2ccccc2CCc2ccccc21 [Nortriptyine]
kinact (min^−1), Literature [7]: 0.036 min⁻¹
Ki ([7]; read-out: KI (µM), Literature): 49.9 µM
kinact (min^−1), Reanalysis ([3]; CYP2C8, reanalysis of literature data (ref 36) with two-step fit of kobs vs [I]): 0.044 ± 0.003 min⁻¹
Ki ([3]; read-out: KI (µM), Reanalysis, CYP2C8, reanalysis of literature data (ref 36) with two-step fit of kobs vs [I]): 66 ± 12 µM

SMILES: COc1ccc(Cn2ccc3ccc(C(=O)NO)cc32)cc1 [PCI-34051, reference compound]
Binding / inhibition mechanism classification [2]: fast-reversible inhibitors

SMILES: NNCCc1ccccc1 [Phenelzine]
Ki ([3]; human): 0.84 ± 0.24 µM
kinact ([3]; human): 0.0035 s⁻¹

SMILES: O=C(CCCCCCC(=O)Nc1ccccc1)NO [SAHA, suberoylanilide hydroxamic acid, reference compound]
Binding / inhibition mechanism classification [2]: fast-reversible inhibitors

SMILES: O=C(CCCCCCC(=O)C(F)(F)F)Nc1ccccc1 [SATFMK]
IC50 ([8]; literature value ref 42): 0.021 µM
Kd [9]: 5.6 nM

IC50 [2]: 4200 ± 1100 nM
Ki [2]: 1300 nM
SMILES: COC(=O)c1ccc(/C=C(\C#N)C(=O)C(F)(F)F)cc1 [SVE04]
Binding / inhibition mechanism classification [2]: fast reversible HDAC8 inhibitors; also recorded: fast reversible binding

IC50 [2]: 2600 ± 400 nM
Ki [2]: 800 nM
SMILES: COc1ccc(CC(C#N)C(=O)O)cc1 (centres unmarked) [SVE27]
Binding / inhibition mechanism classification [2]: fast reversible HDAC8 inhibitors; also recorded: fast reversible binding

IC50 [2]: 400 to 4000 nM
Ki [2]: 5900 ± 800 nM
kinact [2]: 1 min⁻¹
kinact/KI [2]: 2820 M⁻¹ s⁻¹
SMILES: Cc1cc(C)cc(CSc2nc(Cl)ns2)c1 [TJ-19-24]
Binding / inhibition mechanism classification [2]: slow two-step inactivators or reversible inhibitors, with a very low reverse isomerization rate; also recorded: slow covalent inactivator; also recorded: slow two-step inactivation

IC50 [2]: 300 to 3000 nM
Ki [2]: 12000 ± 3000 nM
kinact [2]: 1.8 min⁻¹
kinact/KI [2]: 2500 M⁻¹ s⁻¹
SMILES: Cc1cc(C)cc(CS(=O)(=O)c2nc(Cl)ns2)c1 [TJ-19-28]
Binding / inhibition mechanism classification [2]: two-step inactivation mechanism; also recorded: irreversible inactivation mechanism

SMILES: CC(C)CN(C[C@@H](O)[C@H](Cc1ccccc1)NC(=O)O[C@H]1CO[C@H]2OCC[C@H]21)S(=O)(=O)c1ccc(N)cc1 [darunavir]
residence time (RT) [10]: 247 h

SMILES: CC(C)(C)NC(=O)[C@@H]1CN(Cc2cccnc2)CCN1C[C@@H](O)C[C@@H](Cc1ccccc1)C(=O)N[C@H]1c2ccccc2C[C@H]1O [indinavir]
residence time (RT) [10]: 0.3 h
